Test results taken from patent publication US20080033017A1, “COMPOSITIONS FOR ENHANCED ACARICIDAL ACTIVITY” (priority 2000, published 2008).
Where “and” joins values, the source holds several entries; their conditions need not be identical. Equal values may be shown once.

How the values were obtained:
D. VARIABILIS = assay: Comparative tick control on dogs, D. variabilis, percent control; type: in vivo, Dermacentor variabilis; design: concentration or dose not given beside the values
Description: (§1) The purpose of this study was to was to determine comparative flea and tick control over a 30 day interval of a combination application of a pyrethroid and a chloronicotinyl insecticide applied dermally to dogs. This combination was compared with permethrin alone, imidacloprid alone, fipronil and selamectin. The latter two compounds are present in products that currently carry claims for both tick and flea control
(§2) Thirty-six dogs were divided into six groups of 6 dogs per group. Each dog received a single topically-applied treatment of the either “Kiltix”, a product available from Bayer Corporation containing 45% w/w permethrin, Advantage®, a product available from Bayer Corporation containing 9.1% w/w imidacloprid, a combination of Kiltix and Advantage containing 45% w/w permethrin+9.1% w/w imidacloprid, Top Spot), a product available from Merial containing 9.7% fipronil or Revolution®, a product available from Pfizer Inc. containing 12% w/v selamectin in accordance with the appropriate dose and label instructions for the various product applications. Control dogs remained untreated. All products were provided in the commercial unit dose applicator tubes.
(§3) The dogs were bathed with a mild non-medicated shampoo and thoroughly combed to remove any existing fleas or ticks 7 to 14 days prior to treatment. The dogs were infested with 100 unfed adult ticks (50 Dermacentor variabilis and 50 Rhipiciphalus sanguineus) and 100 unfed adult fleas on Day −3. Live fleas and ticks were counted on Day −1. The dogs were ranked according to total pretreatment live tick counts from highest to lowest. The 36 dogs with the highest counts were selected for the study. Each consecutive group of 6 dogs comprised one block. Treatment was randomly assigned within each block of dogs.
(§4) Each dog was examined visually for fleas and ticks on Days 1, 7, 14, 21, and 28 following treatment. The hair was parted with the thumbs and fingers to count fleas and ticks. Live tick counts were recorded by species. Live ticks only were counted visually on Days 2, 8, 15, 22, and 29. The dogs were combed on Days 3, 9, 16, 23, and 30. All remaining live fleas and ticks were counted and removed.

R. SANGUINEUS = assay: Comparative tick control on dogs, R. sanguineus, percent control; type: in vivo, Rhipicephalus sanguineus; design: Percent control R. sanguineus: concentration or dose not given beside the values
Description: as §1, §2, §3, §4

FLEAS (Siphoneptera) = assay: Comparative flea control on dogs, percent control; type: in vivo; design: Percent control fleas: concentration or dose not given beside the values
Description: as §1, §2, §3, §4

[1] = system: both species of ticks (D. variabilis and R. sanguineus); assay: Tick control on dogs, both species together; type: in vivo, Dermacentor variabilis and Rhipicephalus sanguineus; conditions: both tick species
Description: as §1
Thirty-six dogs were divided into six groups of 6 dogs per group. […]
The dogs were bathed with a mild non-medicated shampoo and thoroughly combed to remove any existing fleas or ticks 7 to 14 days prior to treatment. […] Live fleas and ticks were counted on Day −1. […]
Each dog was examined visually for fleas and ticks on Days 1, 7, 14, 21, and 28 following treatment. […] Live tick counts were recorded by species. Live ticks only were counted visually on Days 2, 8, 15, 22, and 29. […] All remaining live fleas and ticks were counted and removed.

[2] = Study Day 1, single topical treatment
[3] = Study Day 2, single topical treatment
[4] = Study Day 3, single topical treatment
[5] = Study Day 7, single topical treatment
[6] = Study Day 8, single topical treatment
[7] = Study Day 9, single topical treatment
[8] = Study Day 14, single topical treatment
[9] = Study Day 15, single topical treatment
[10] = Study Day 16, single topical treatment
[11] = Study Day 21, single topical treatment
[12] = Study Day 22, single topical treatment
[13] = Study Day 23, single topical treatment
[14] = Study Day 28, single topical treatment
[15] = Day 1, single topical treatment
[16] = Day 3, single topical treatment
[17] = Day 7, single topical treatment
[18] = Day 9, single topical treatment
[19] = Day 14, single topical treatment
[20] = Day 16, single topical treatment
[21] = Day 21, single topical treatment
[22] = Day 23, single topical treatment
[23] = Day 28, single topical treatment
[24] = Day 30, single topical treatment

Row | SMILES | Percent control D. variabilis (D. VARIABILIS; [2]) | Percent control D. variabilis (D. VARIABILIS; [3]) | Percent control D. variabilis (D. VARIABILIS; [4]) [%] | Percent control D. variabilis (D. VARIABILIS; [5]) [%] | Percent control D. variabilis (D. VARIABILIS; [6]) [%] | Percent control D. variabilis (D. VARIABILIS; [7]) | Percent control D. variabilis (D. VARIABILIS; [8]) [%] | Percent control D. variabilis (D. VARIABILIS; [9]) [%] | Percent control D. variabilis (D. VARIABILIS; [10]) [%] | Percent control D. variabilis (D. VARIABILIS; [11]) [%] | Percent control D. variabilis (D. VARIABILIS; [12]) [%] | Percent control D. variabilis (D. VARIABILIS; [13]) [%] | Percent control D. variabilis (D. VARIABILIS; [14]) [%] | Percent control R. sanguineus (R. SANGUINEUS; [2]) [%] | Percent control R. sanguineus (R. SANGUINEUS; [3]) [%] | Percent control R. sanguineus (R. SANGUINEUS; [4]) | Percent control R. sanguineus (R. SANGUINEUS; [5]) [%] | Percent control R. sanguineus (R. SANGUINEUS; [6]) [%] | Percent control R. sanguineus (R. SANGUINEUS; [7]) [%] | Percent control R. sanguineus (R. SANGUINEUS; [8]) [%] | other results
1 | N#Cc1nn(-c2c(Cl)cc(C(F)(F)F)cc2Cl)c(N)c1[S+]([O-])C(F)(F)F (stereo not drawn) [Fipronil, fipronil] | *92.9% | *100% | 100 | 100 | 100 | 100% | 98.7 | 100 | 100 | 92.7 | 98.7 | 100 | 69.7 | 96.3 | 100 | 100% | 100 | 100 | 100 | 99.4 | Percent control R. sanguineus (R. SANGUINEUS; [9]): 100%; Percent control R. sanguineus (R. SANGUINEUS; [10]): 99.4%; Percent control R. sanguineus (R. SANGUINEUS; [11]): 86.0%; Percent control R. sanguineus (R. SANGUINEUS; [12]): 100%; Percent control R. sanguineus (R. SANGUINEUS; [13]): 100%; Percent control R. sanguineus (R. SANGUINEUS; [14]): 65.3%; flea kill compared with imidacloprid or the combination (in words) (FLEAS (Siphoneptera)): rate of flea kill equal to that of imidacloprid or the combination of imidacloprid and permethrin; Percent control fleas (FLEAS (Siphoneptera); [15]): 100%; Percent control fleas (FLEAS (Siphoneptera); [16]): 100%; Percent control fleas (FLEAS (Siphoneptera); [17]): 100%; Percent control fleas (FLEAS (Siphoneptera); [18]): 100%; Percent control fleas (FLEAS (Siphoneptera); [19]): 100%; Percent control fleas (FLEAS (Siphoneptera); [20]): 100%; Percent control fleas (FLEAS (Siphoneptera); [21]): 100%; Percent control fleas (FLEAS (Siphoneptera); [22]): 100%; Percent control fleas (FLEAS (Siphoneptera); [23]): 100%; Percent control fleas (FLEAS (Siphoneptera); [24]): 100%; Percent control fleas (FLEAS (Siphoneptera); Day −1 (pretreatment count)): 22.4%; onset of tick kill (in words) [1]: early kill, similar to that of the combination of permethrin and imidacloprid
2 | O=[N+]([O-])N=C1NCCN1Cc1ccc(Cl)nc1 [Imidacloprid, 1-[(6-chloro-3-pyridinyl)methyl]-N-nitro-2-imidazolidinimine] | −12.0% | 16.9% | 30.9 | 32.5 | 35.3 | 39.4% | 50.3 | 66.4 | 68.4 | 50.2 | 40.1 | 50.2 | 38.8 | 15.5 | 42.4 | 35.9% | 67.2 | 72.0 | 66.6 | 53.5 | Percent control R. sanguineus (R. SANGUINEUS; [9]): 58.2%; Percent control R. sanguineus (R. SANGUINEUS; [10]): 54.0%; Percent control R. sanguineus (R. SANGUINEUS; [11]): 41.5%; Percent control R. sanguineus (R. SANGUINEUS; [12]): 18.9%; Percent control R. sanguineus (R. SANGUINEUS; [13]): −5.3%; Percent control R. sanguineus (R. SANGUINEUS; [14]): 39.1%; Percent control fleas (FLEAS (Siphoneptera); [15]): 100%; Percent control fleas (FLEAS (Siphoneptera); [16]): 100%; Percent control fleas (FLEAS (Siphoneptera); [17]): 100%; Percent control fleas (FLEAS (Siphoneptera); [18]): 100%; Percent control fleas (FLEAS (Siphoneptera); [19]): 100%; Percent control fleas (FLEAS (Siphoneptera); [20]): 100%; Percent control fleas (FLEAS (Siphoneptera); [21]): 100%; Percent control fleas (FLEAS (Siphoneptera); [22]): 99.6%; Percent control fleas (FLEAS (Siphoneptera); [23]): 98.6%; Percent control fleas (FLEAS (Siphoneptera); [24]): 99.4%; Percent control fleas (FLEAS (Siphoneptera); Day −1 (pretreatment count)): 5.4%; killing of fleas (in words) (FLEAS (Siphoneptera); from day 1 through day 30): killed essentially all of the fleas
3 | CO[C@H]1C[C@H](O[C@@H]2/C(C)=C/C[C@@H]3C[C@@H](C[C@]4(CC[C@H](C)[C@@H](C5CCCCC5)O4)O3)OC(=O)[C@@H]3C=C(C)/C(=N/O)[C@H]4OC/C(=C\C=C\[C@@H]2C)[C@]43O)O[C@@H](C)[C@@H]1O [Selamectin, selamectin] | 26.2% | 46.7% | 70.8 | 23.1 | 61.2 | 83% and 83.2% | 16.6 | 32.7 | 46.1 | 2.7 | −0.6 | 24.7 | 0.1 | −13.1 | 48.5 | 87% and 87.4% | 83.9 | 83.6 | 95.6 | 21.5 | Percent control R. sanguineus (R. SANGUINEUS; [9]): 46.0%; Percent control R. sanguineus (R. SANGUINEUS; [10]): 70.9%; Percent control R. sanguineus (R. SANGUINEUS; [11]): −7.0%; Percent control R. sanguineus (R. SANGUINEUS; [12]): −2.2%; Percent control R. sanguineus (R. SANGUINEUS; [13]): 8.2%; Percent control R. sanguineus (R. SANGUINEUS; [14]): −16.0%; tick killing of R. sanguineus (in words) (R. SANGUINEUS; by day 16 post application): negligent; flea kill compared with imidacloprid or the combination (in words) (FLEAS (Siphoneptera)): not as effective as either imidacloprid or the combination of imidacloprid and permethrin; Percent control fleas (FLEAS (Siphoneptera); [15]): 87.3%; Percent control fleas (FLEAS (Siphoneptera); [16]): 100%; Percent control fleas (FLEAS (Siphoneptera); [17]): 100%; Percent control fleas (FLEAS (Siphoneptera); [18]): 100%; Percent control fleas (FLEAS (Siphoneptera); [19]): 99.7%; Percent control fleas (FLEAS (Siphoneptera); [20]): 100%; Percent control fleas (FLEAS (Siphoneptera); [21]): 99.8%; Percent control fleas (FLEAS (Siphoneptera); [22]): 100%; Percent control fleas (FLEAS (Siphoneptera); [23]): 86%; Percent control fleas (FLEAS (Siphoneptera); [24]): 98%; Percent control fleas (FLEAS (Siphoneptera); Day −1 (pretreatment count)): 15.1%; time required to demonstrate a significant killing of fleas (FLEAS (Siphoneptera); single topical treatment): 3 days
